Test results from patent US11530199B2, “Analogs for the treatment of disease” (Insilico Medicine IP Limited, priority 2021, dated 2022).

Experiment: Metabolic stability in human liver microsomes;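 also: NADPH-supplemented incubation in 100 mM potassium phosphate buffer, compound loss sampled at 0, 5, 10, 20, 30 and 60 min by LC-MS/MS, first-order kinetics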
Assay type: in vitro ADME
Conditions: LM Clint; human liver microsomes 0.5 mg protein/mL, test compound 1 μM, 37° C., up to 60 min

| SMILES | Human Liver Microsome (μM/min/mg) |
| --- | --- |
| CC(C)n1cnc(-c2ccc(F)cc2)c1-c1cccc(C(=O)Nc2ccc(N3CCN(C)CC3)cc2)n1 [Compound 127] | + (>100 μM/min/mg as) |
| C[N+]1([O-])CCN(c2ccc(NC(=O)c3c[nH]c(-c4c(-c5ccc(F)cc5)ncn4CC(F)(F)F)n3)cc2)CC1 [Compound 166, 4-(4-(5′-(4-fluorophenyl)-3′-(2,2,2-trifluoroethyl)-1H,3′H-[2,4′-biimidazole]-4-carboxamido)phenyl)-1-methylpiperazine 1-oxide] | +++ (1-10 μM/min/mg as +++) |
| CC(C)n1cnc(-c2ccc(F)c(F)c2)c1-c1nc(C(=O)Nc2ccc(N3CCN(C)CC3)cc2)c[nH]1 [Compound 156, 5′-(3,4-difluorophenyl)-3′-isopropyl-N-(4-(4-methylpiperazin-1-yl)phenyl)-1H,3′H-[2,4′-biimidazole]-4-carboxamide] | ++ (10-100 μM/min/mg as ++) |
| CC(C)n1cnc(-c2ccc(Cl)cc2)c1-c1nc(C(=O)Nc2ccc(N3CCN(CCO)CC3)cc2)c[nH]1 [Compound 139, 5′-(4-chlorophenyl)-N-(4-(4-(2-hydroxyethyl)piperazin-1-yl)phenyl)-3′-isopropyl-1H,3′H-[2,4′-biimidazole]-4-carboxamide] | ++ (10-100 μM/min/mg as ++) |
| O=C(Nc1ccc(N2CCN(CCO)CC2)cc1)c1c[nH]c(-c2c(-c3ccc(F)cc3)ncn2[C@H]2CC[C@H](O)CC2)n1 [Compound 158, 5′-(4-fluorophenyl)-3′-((1r,4r)-4-hydroxycyclohexyl)-N-(4-(4-(2-hydroxyethyl)piperazin-1-yl)phenyl)-1H,3′H-[2,4′-biimidazole]-4-carboxamide] | +++ (1-10 μM/min/mg as +++) |
| CC(C)n1cnc(-c2ccc(F)cc2)c1-c1cccc(C(=O)Nc2ccc(CCC(=O)O)cc2)n1 [Compound 131] | +++ (1-10 μM/min/mg as +++) |
| CC(C)n1cnc(-c2ccc(F)cc2)c1-c1ccc(C(=O)Nc2ccc(N3CCN(C)CC3)cc2)o1 [Compound 121, 5-(4-(4-fluorophenyl)-1-isopropyl-1H-imidazol-5-yl)-N-(4-(4-methylpiperazin-1-yl)phenyl)furan-2-carboxamide] | + (>100 μM/min/mg as) |
| CN1CCN(c2ccc(NC(=O)c3c[nH]c(-c4c(-c5ccc(F)cc5)ncn4C)n3)cc2)CC1 [Compound 119, 5′-(4-fluorophenyl)-3′-methyl-N-(4-(4-methylpiperazin-1-yl)phenyl)-1H,3′H-[2,4′-biimidazole]-4-carboxamide] | ++ (10-100 μM/min/mg as ++) |
| CN1CCN(c2ccc(NC(=O)c3c[nH]c(-c4c(-c5ccc(F)cc5)ncn4C(F)F)n3)cc2)CC1 [Compound 130, 3′-(difluoromethyl)-5′-(4-fluorophenyl)-N-(4-(4-methylpiperazin-1-yl)phenyl)-1H,3′H-[2,4′-biimidazole]-4-carboxamide] | ++ (10-100 μM/min/mg as ++) |
| CC(C)n1cnc(-c2ccc(F)c(F)c2)c1-c1nc(C(=O)Nc2ccc(N3CCN(CCO)CC3)cc2)c[nH]1 [Compound 146, 5′-(3,4-difluorophenyl)-N-(4-(4-(2-hydroxyethyl)piperazin-1-yl)phenyl)-3′-isopropyl-1H,3′H-[2,4′-biimidazole]-4-carboxamide] | ++ (10-100 μM/min/mg as ++) |
| CC(C)n1cnc(-c2ccc(F)cc2)c1-c1ccc(C(=O)Nc2ccc(CCO)cc2)o1 [Compound 126, 5-(4-(4-fluorophenyl)-1-isopropyl-1H-imidazol-5-yl)-N-(4-(2-hydroxyethyl)phenyl)furan-2-carboxamide] | + (>100 μM/min/mg as) |
| CN1CCN(c2ccc(NC(=O)c3c[nH]c(-c4c(-c5ccc(F)cc5)ncn4CC(C)(C)C)n3)cc2)CC1 [Compound 135, 5′-(4-fluorophenyl)-N-(4-(4-methylpiperazin-1-yl)phenyl)-3′-neopentyl-1H,3′H-[2,4′-biimidazole]-4-carboxamide] | + (>100 μM/min/mg as) |
| CN1CCN(c2ccc(NC(=O)c3c[nH]c(-c4c(-c5ccc(F)cc5)ncn4[C@H]4CC[C@H](O)CC4)n3)cc2)CC1 [Compound 159, 5′-(4-fluorophenyl)-3′-((1r,4r)-4-hydroxycyclohexyl)-N-(4-(4-methylpiperazin-1-yl)phenyl)-1H,3′H-[2,4′-biimidazole]-4-carboxamide] | ++ (10-100 μM/min/mg as ++) |
| CN1CCN(c2ccc(NC(=O)c3c[nH]c(-c4c(-c5ccc(F)cc5)ncn4C4CCC(O)CC4)n3)cc2)CC1 (stereo not shown) [Compound 172] | +++ (1-10 μM/min/mg as +++) |
| CC(C)n1cnc(-c2ccc(C(F)(F)F)cc2)c1-c1nc(C(=O)Nc2ccc(N3CCN(C)CC3)cc2)c[nH]1 [Compound 142, 3′-isopropyl-N-(4-(4-methylpiperazin-1-yl)phenyl)-5′-(4-(trifluoromethyl)phenyl)-1H,3′H-[2,4′-biimidazole]-4-carboxamide] | + (>100 μM/min/mg as) |
| CC(C)n1cnc(-c2ccc(F)cc2)c1-c1cccc(C(=O)Nc2ccc(N3CCN(CCO)CC3)cc2)n1 [Compound 128] | + (>100 μM/min/mg as) |
| CN1CCN(c2ccc(NC(=O)c3c[nH]c(-c4c(-c5ccc(F)cc5)ncn4CC(F)(F)F)n3)cc2)CC1 [Compound 120, 5′-(4-fluorophenyl)-N-(4-(4-methylpiperazin-1-yl)phenyl)-3′-(2,2,2-trifluoroethyl)-1H,3′H-[2,4′-biimidazole]-4-carboxamide] | ++ (10-100 μM/min/mg as ++) |
| O=C(Nc1ccc(N2CCNCC2)cc1)c1c[nH]c(-c2c(-c3ccc(F)cc3)ncn2CC(F)(F)F)n1 [Compound 167, 5′-(4-fluorophenyl)-N-(4-(piperazin-1-yl)phenyl)-3′-(2,2,2-trifluoroethyl)-1H,3′H-[2,4′-biimidazole]-4-carboxamide] | ++ (10-100 μM/min/mg as ++) |

Results, then the compound that gave them:

| Human Liver Microsome (μM/min/mg) | SMILES |
| --- | --- |
| +++ (1-10 μM/min/mg as +++) | CC(C)n1cnc(-c2ccc(Cl)cc2)c1-c1nc(C(=O)Nc2ccc(CCC(=O)O)cc2)c[nH]1 [Compound 137, 3-(4-(5′-(4-chlorophenyl)-3′-isopropyl-1H,3′H-[2,4′-biimidazole]-4-carboxamido)phenyl)propanoic acid] |
| ++ (10-100 μM/min/mg as ++) | CC(C)n1cnc(-c2ccc(F)cc2)c1-c1nc(C(=O)Nc2ccc(CCO)cc2)c[nH]1 [Compound 111, 5′-(4-fluorophenyl)-N-(4-(2-hydroxyethyl)phenyl)-3′-isopropyl-1H,3′H-[2,4′-biimidazole]-4-carboxamide] |
| ++ (10-100 μM/min/mg as ++) | CC(C)n1cnc(-c2ccc(F)cc2)c1-c1nc(C(=O)Nc2ccc(N3CCNCC3)cc2)c[nH]1 [Compound 181, 5′-(4-fluorophenyl)-3′-isopropyl-N-(4-(piperazin-1-yl)phenyl)-1H,3′H-[2,4′-biimidazole]-4-carboxamide] |
| +++ (1-10 μM/min/mg as +++) | CC(C)n1cnc(-c2ccc(F)cc2)c1-c1nc(C(=O)Nc2ccc(CCCCC(=O)O)cc2)c[nH]1 [Compound 132, 5-(4-(5′-(4-fluorophenyl)-3′-isopropyl-1H,3′H-[2,4′-biimidazole]-4-carboxamido)phenyl)pentanoic acid] |
| ++ (10-100 μM/min/mg as ++) | CC(C)n1cnc(-c2ccc(F)cc2)c1-c1nc(C(=O)Nc2ccc(N3CCN(CCO)CC3)cc2)c[nH]1 [Compound 117, 5′-(4-fluorophenyl)-N-(4-(4-(2-hydroxyethyl)piperazin-1-yl)phenyl)-3′-isopropyl-1H,3′H-[2,4′-biimidazole]-4-carboxamide] |
| +++ (1-10 μM/min/mg as +++) | CC(C)n1cnc(-c2ccc(F)cc2)c1-c1nc(C(=O)Nc2ccc(N(CCO)CCO)cc2)c[nH]1 [Compound 116, N-(4-(bis(2-hydroxyethyl)amino)phenyl)-5′-(4-fluorophenyl)-3′-isopropyl-1H,3′H-[2,4′-biimidazole]-4-carboxamide] |
| + (>100 μM/min/mg as) | CC(C)n1cnc(-c2ccc(F)cc2)c1-c1nc(C(=O)Nc2ccc(N3CCN(S(N)(=O)=O)CC3)cc2)c[nH]1 [Compound 97, 5′-(4-fluorophenyl)-3′-isopropyl-N-(4-(4-sulfamoylpiperazin-1-yl)phenyl)-1H,3′H-[2,4′-biimidazole]-4-carboxamide] |
| +++ (1-10 μM/min/mg as +++) | CC(C)n1cnc(-c2ccc(F)cc2)c1-c1nc(C(=O)Nc2ccc(CCC(=O)O)cc2)c[nH]1 [Compound 102, 3-(4-(5′-(4-fluorophenyl)-3′-isopropyl-1H,3′H-[2,4′-biimidazole]-4-carboxamido)phenyl)propanoic acid] |
| +++ (1-10 μM/min/mg as +++) | CC(C)n1cnc(-c2ccc(F)cc2)c1-c1nc(C(=O)Nc2ccc(C(=O)O)cc2)c[nH]1 [Compound 113, 4-(5′-(4-fluorophenyl)-3′-isopropyl-1H,3′H-[2,4′-biimidazole]-4-carboxamido)benzoic acid] |
| ++ (10-100 μM/min/mg as ++) | CC(C)n1cnc(-c2ccc(F)cc2)c1-c1nc(C(=O)Nc2ccc(N3CCN(C(N)=O)CC3)cc2)c[nH]1 [Compound 99, N-(4-(4-carbamoylpiperazin-1-yl)phenyl)-5′-(4-fluorophenyl)-3′-isopropyl-1H,3′H-[2,4′-biimidazole]-4-carboxamide] |
